# Experimental data taken from patent US20020103187A1, “Compositions and methods for treating superficial fungal infections” (priority 1999, published 2002).
# What was measured:
# C. albicans (I) = test: Sensitivity of fungi to taurolidine, solid medium; type: cell-based; conditions: Candida albicans
# [1] = Stability in the solid state; type: physicochemical; conditions: stored at ambient conditions
# [2] = system: Trichophyton mentagrophytes; test: Sensitivity of fungi to taurolidine, solid medium; type: cell-based
# C. albicans (Jones) [3] = test: Sensitivity of fungi to taurolidine, liquid medium; type: cell-based; conditions: Candida albicans
# Trichophyton rubrum = test: Sensitivity of fungi to taurolidine, liquid medium; type: cell-based
# C. tropicalis = test: Sensitivity of fungi to taurolidine, liquid medium; type: cell-based; conditions: Candida tropicalis
# [4] = pH of saturated solution in deionized water; type: physicochemical
# Mucor spp. (Lane) = test: Sensitivity of fungi to taurolidine, solid medium; type: cell-based
# Epidermophyton floccosum = test: Sensitivity of fungi to taurolidine, solid medium; type: cell-based
# Mucor spp. (light inoc.) = test: Sensitivity of fungi to taurolidine, liquid medium; type: cell-based
# C. albicans (Has. A) [5] = test: Sensitivity of fungi to taurolidine, liquid medium; type: cell-based; conditions: Candida albicans
# C. albicans (Jones) [6] = test: Sensitivity of fungi to taurolidine, solid medium; type: cell-based; conditions: Candida albicans
# [7] = systemic doses exceeding 40 g/day and cumulative doses up to and exceeding 300 g; cited from earlier work
# Mucor spp. (heavy inoc.) = test: Sensitivity of fungi to taurolidine, liquid medium; type: cell-based
# bacteria = test: Antibacterial activity; type: cell-based; conditions: antifungal activity stated approximately equivalent to it
# Sporotrichum schenkii = test: Sensitivity of fungi to taurolidine, solid medium; type: cell-based
# C. albicans (Wilton) = test: Sensitivity of fungi to taurolidine, solid medium; type: cell-based; conditions: Candida albicans
# Aspergillus fumigatus = test: Sensitivity of fungi to taurolidine, liquid medium; type: cell-based
# [8] = Solubility in aqueous solutions and organic solvents; type: physicochemical
# Rhizopus spp. = test: Sensitivity of fungi to taurolidine, solid medium; type: cell-based
# C. spp. = test: Sensitivity of fungi to taurolidine, liquid medium; type: cell-based
# Cryptococcus neoformans = test: Sensitivity of fungi to taurolidine, solid medium; type: cell-based
# [9] = Apparent partition coefficient between octanol and water; type: physicochemical; conditions: water buffered at pH 7.2
# C. albicans (Has. A) [10] = test: Sensitivity of fungi to taurolidine, solid medium; type: cell-based; conditions: Candida albicans
# Aspergillus fumigatus I = test: Sensitivity of fungi to taurolidine, solid medium; type: cell-based
# [11] = system: Aspergillus fumigatus III; test: Sensitivity of fungi to taurolidine, solid medium; type: cell-based
# Candida albicans = test: Antifungal activity; type: cell-based; conditions: the exception in the text summary of Table 1
structure (smiles),measurement,setting,value
"O=S1(=O)CCN(CN2CCS(=O)(=O)NC2)CN1 [Taurolidine, 4,4′-methylenebis(tetrahydro-1,2,4-thiadiazine)1,1,1′,1′,-tetraoxide]",MIC,C. albicans (I),> 5000 µg/mL
same,stability in the solid state,[1],acceptable stability
same,MIC,[2],< 300 µg/mL
same,MIC,C. albicans (Jones) [3],5000 µg/mL
same,MIC,Trichophyton rubrum,300 µg/mL
same,MIC,C. tropicalis,300 µg/mL
same,pH of a saturated solution,[4],7.4
same,MIC,Mucor spp. (Lane),625 µg/mL
same,MIC,Epidermophyton floccosum,< 300 µg/mL
same,MIC,Mucor spp. (light inoc.),625 µg/mL
same,MIC,C. albicans (Has. A) [5],2500 µg/mL
same,MIC,C. albicans (Jones) [6],> 5000 µg/mL
same,safety and tolerability,[7],safe and well tolerated
same,MIC,Mucor spp. (heavy inoc.),625 µg/mL
same,antibacterial activity,bacteria,0.3 to 0.6 mg/mL
same,MIC,Sporotrichum schenkii,625 µg/mL
same,MIC,C. albicans (Wilton),> 5000 µg/mL
same,MIC,Aspergillus fumigatus,300 µg/mL
same,solubility,[8]; CHCl3,insoluble
same,solubility,[8]; Dilute HCl,soluble
same,solubility,[8]; Dilute NaOH,soluble
same,solubility,[8]; EtOH,sparingly soluble
same,solubility,"[8]; Water, 20° C.",1% at 20 °C
same,MIC,Rhizopus spp.,625 µg/mL
same,MIC,C. spp.,625 µg/mL
same,MIC,Cryptococcus neoformans,< 300 µg/mL
same,apparent partition coefficient between octanol and water,[9],approximately 0.13
same,MIC,C. albicans (Has. A) [10],> 5000 µg/mL
same,MIC,Aspergillus fumigatus I,625 µg/mL
same,MIC,[11],625 µg/mL
same,antifungal activity,Candida albicans,> 5 mg/mL
